Data as given in patent US8247594B2, “Insecticidal compounds” (Syngenta Crop Protection LLC, priority 2007, dated 2012).

What was measured:
Tetranychus urticae = Tetranychus urticae (two-spotted spider mite) leaf disc spray test; assay type: in vivo; details: application rate 200 ppm, sprayed bean leaf discs, mixed ages, 8 days; egg, larval and adult mortality
Description: Tetranychus Urticae (Two-Spotted Spider Mite): Bean leaf discs on agar in 24-well microtiter plates were sprayed with test solutions at an application rate of 200 ppm. After drying, the leaf discs are infested with mite populations of mixed ages. 8 days later, discs are checked for egg mortality, larval mortality, and adult mortality.

Myzus persicae = Myzus persicae (green peach aphid) leaf disc spray test; assay type: in vivo; details: application rate 200 ppm, sprayed sunflower leaf discs, mixed ages, 6 DAT; mortality
Experimental: Myzus Persicae (Green Peach Aphid): Sunflower leaf discs were placed on agar in a 24-well microtiter plate and sprayed with test solutions at an application rate of 200 ppm. After drying, the leaf discs were infested with an aphid population of mixed ages. After an incubation period of 6 DAT, samples were checked for mortality.

Compound	control of Tetranychus urticae (Tetranychus urticae)	control of Myzus persicae (Myzus persicae)
N#Cc1ccc(C(=O)Nc2c(Br)cc(C(F)(C(F)(F)F)C(F)(F)F)cc2Br)cc1NC(=O)OCC(Cl)(Cl)Cl [A11]	at least 80%	
CCc1cc(C(F)(C(F)(F)F)C(F)(F)C(F)(F)F)cc(CC)c1NC(=O)c1ccc(C#N)c(NC(=O)OCC(Cl)(Cl)Cl)c1 (centres unmarked) [A12]		at least 80%
